Reference: ChEMBL document CHEMBL1201862, “PubChem BioAssay data set” (2004)
The source made the active and inactive calls.

Experiments:
[1] = target: T1, Endoribonuclease toxin MazF (Escherichia coli K-12, UniProt P0AE70); test: substrate-only fluorescence increase artefacts – biochemical, single-stranded RNase substrate, counter-screen for MazEF activator project, dose response (AID 588502); assay type: functional
T1 sequence (P0AE70 whole entry): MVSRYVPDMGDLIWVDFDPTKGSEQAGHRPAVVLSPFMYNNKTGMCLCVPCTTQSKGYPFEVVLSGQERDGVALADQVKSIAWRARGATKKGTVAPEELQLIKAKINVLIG

HEK293 [2] = test: optical interference in Abeta FP readout, dose response, artefact control for IDE activator project, biochemical, fluorescence polarization (AID 588442); assay type: functional, cell-based; conditions: Homo sapiens
Insulin-degrading enzyme [3] = target: T2, Insulin-degrading enzyme (Homo sapiens, UniProt P14735); test: recombinant IDE activation, cell-free – biochemical, fluorescence polarization, counter-screen for IDE activator project, dose response (AID 588681)
T2 sequence (P14735 whole entry): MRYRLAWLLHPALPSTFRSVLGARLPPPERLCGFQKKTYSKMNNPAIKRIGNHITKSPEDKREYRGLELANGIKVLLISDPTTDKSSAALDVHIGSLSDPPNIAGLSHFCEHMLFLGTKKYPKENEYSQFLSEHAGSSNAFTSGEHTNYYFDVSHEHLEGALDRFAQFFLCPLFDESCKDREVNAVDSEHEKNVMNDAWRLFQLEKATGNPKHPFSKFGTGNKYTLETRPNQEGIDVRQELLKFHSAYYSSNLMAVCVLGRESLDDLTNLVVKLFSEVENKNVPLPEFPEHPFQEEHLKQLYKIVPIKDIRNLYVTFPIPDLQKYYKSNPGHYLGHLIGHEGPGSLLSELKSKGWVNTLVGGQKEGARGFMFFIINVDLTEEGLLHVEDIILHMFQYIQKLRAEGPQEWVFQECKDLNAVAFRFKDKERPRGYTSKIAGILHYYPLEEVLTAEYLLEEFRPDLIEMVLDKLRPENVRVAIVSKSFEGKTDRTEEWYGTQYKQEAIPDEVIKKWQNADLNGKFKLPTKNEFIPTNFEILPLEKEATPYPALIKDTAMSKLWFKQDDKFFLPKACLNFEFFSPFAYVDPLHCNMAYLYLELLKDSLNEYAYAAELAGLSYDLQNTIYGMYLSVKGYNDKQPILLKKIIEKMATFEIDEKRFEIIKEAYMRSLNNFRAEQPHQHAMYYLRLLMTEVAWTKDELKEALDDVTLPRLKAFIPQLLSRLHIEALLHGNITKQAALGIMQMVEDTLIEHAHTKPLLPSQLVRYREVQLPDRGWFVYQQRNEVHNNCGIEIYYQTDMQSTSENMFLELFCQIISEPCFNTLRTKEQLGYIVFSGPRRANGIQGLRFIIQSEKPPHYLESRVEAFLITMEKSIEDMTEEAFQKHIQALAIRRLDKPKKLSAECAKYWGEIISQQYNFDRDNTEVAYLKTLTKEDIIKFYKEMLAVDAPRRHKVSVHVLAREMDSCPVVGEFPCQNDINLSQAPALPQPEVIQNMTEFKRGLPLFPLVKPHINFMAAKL

HEK293 [4] = test: membrane integrity loss in HEK cells – cell-based, fluorescence, cytotoxicity control for IDE activator project, dose response (AID 588440); assay type: functional; conditions: Homo sapiens;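 note: cytotoxicity by LDH release measuring loss of membrane integrity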
Cytochrome P450 3A4 [5] = target: T3, Cytochrome P450 3A4 (Homo sapiens, UniProt P08684); conditions: Potency
[6] = target: T1, Endoribonuclease toxin MazF; test: activation of MazEF endoribonuclease cleavage – biochemical, fluorescence, single-stranded RNA substrate, uHTS hits, dose response (AID 588481); assay type: functional
Insulin-degrading enzyme [7] = target: T2, Insulin-degrading enzyme; test: cellular IDE activation of Abeta substrate cleavage – fluorescence polarization, HEK cells, dose response (AID 588439); assay type: functional, cell-based
[8] = target: Ras and Rab interactor 1/Tyrosine-protein kinase ABL1 (Homo sapiens, UniProt P00519+Q13671); assay type: functional;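 note: biochemical TR-FRET dose-response test measuring inhibition of binding between Rin1 and Abl proteins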
[9] = blockade of melanocortin 4 receptor signaling – cell-based, plate reader, cherry pick, counter-screen for LGR2 antagonist project, dose response (AID 743444); assay type: functional;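 note: transfected HEK 293 cells stimulated with alpha-MSH peptide; potency of inhibitors of the alpha-MSH evoked signal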
[10] = blockers of bursicon-stimulated LGR2 cAMP reporter – cell-based, HEK293, CRE-luciferase reporter, cherry pick, set 2, dose response (AID 743343); assay type: functional;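 note: transfected cells were stimulated with diluted bursicon conditioned medium after compound addition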
[11] = A549 cell cytotoxicity, dose response, cytotoxicity control, plate reader, cherry-pick, antagonist series (AID 743412); assay type: functional, cell-based
[12] = toxicity toward HepG2 liver cells – cell-based, plate reader, cherry-pick, antagonist series, cytotoxicity control, dose response (AID 743416); assay type: functional
Melanocortin receptor 4 = Melanocortin receptor 4 (Homo sapiens, UniProt P32245); test: inhibitors of MC4R cAMP signaling – cell-based, TR-FRET, biased antagonists, dose response (AID 602298); assay type: functional;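 note: antagonist potency against agonist-stimulated cAMP production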
[13] = cAMP pathway inhibition in counterscreen cell line – TR-FRET cAMP detection, counter-screen for MC4R biased antagonist project, dose response (AID 602305); assay type: functional, cell-based;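 note: U2OS cells stimulated with forskolin near its EC80 as the cAMP inducer; potency is for inhibition of forskolin-stimulated cAMP signaling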
[14] = viability loss in HEK293 cells – cell-based, plate reader, cherry-picked samples, cytotoxicity control, dose response (AID 743446); assay type: functional
Cytochrome P450 2D6 = Cytochrome P450 2D6 (Homo sapiens, UniProt P10635);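 note: CYP2D6 member of a cytochrome P450 panel assay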
Cytochrome P450 3A4 [15] = target: T3, Cytochrome P450 3A4
HeLa = test: ATP-based viability loss in HeLa cells – cell-based, CellTiter-Glo luminescence, cherry-pick samples, cytotoxicity control for MITF activator project, dose response (AID 540259); assay type: functional; conditions: Homo sapiens
[16] = target: T4, Type-1 angiotensin II receptor (Homo sapiens, UniProt P30556); test: antagonism of angiotensin II type 1 receptor – cell-based, uHTS hits, selectivity assay for APJ receptor antagonist project, dose response (AID 463214); assay type: functional;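 note: antagonist potency against angiotensin II stimulated AT1 response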
T4 sequence (P30556 whole entry): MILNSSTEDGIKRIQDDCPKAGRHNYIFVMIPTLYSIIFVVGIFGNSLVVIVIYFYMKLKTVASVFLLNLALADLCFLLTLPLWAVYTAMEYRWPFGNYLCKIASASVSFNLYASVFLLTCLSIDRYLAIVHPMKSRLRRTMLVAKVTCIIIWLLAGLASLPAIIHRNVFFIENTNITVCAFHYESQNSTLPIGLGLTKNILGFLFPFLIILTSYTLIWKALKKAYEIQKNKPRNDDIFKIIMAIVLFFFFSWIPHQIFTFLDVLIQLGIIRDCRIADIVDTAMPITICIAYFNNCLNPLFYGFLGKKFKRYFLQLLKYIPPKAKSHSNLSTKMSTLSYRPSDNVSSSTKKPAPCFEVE

Beta-galactosidase = Beta-galactosidase (Escherichia coli, UniProt Q8VNN2); test: PubChem AID 485352; assay type: functional
Beta-galactosidase, sequence (Q8VNN2 whole entry): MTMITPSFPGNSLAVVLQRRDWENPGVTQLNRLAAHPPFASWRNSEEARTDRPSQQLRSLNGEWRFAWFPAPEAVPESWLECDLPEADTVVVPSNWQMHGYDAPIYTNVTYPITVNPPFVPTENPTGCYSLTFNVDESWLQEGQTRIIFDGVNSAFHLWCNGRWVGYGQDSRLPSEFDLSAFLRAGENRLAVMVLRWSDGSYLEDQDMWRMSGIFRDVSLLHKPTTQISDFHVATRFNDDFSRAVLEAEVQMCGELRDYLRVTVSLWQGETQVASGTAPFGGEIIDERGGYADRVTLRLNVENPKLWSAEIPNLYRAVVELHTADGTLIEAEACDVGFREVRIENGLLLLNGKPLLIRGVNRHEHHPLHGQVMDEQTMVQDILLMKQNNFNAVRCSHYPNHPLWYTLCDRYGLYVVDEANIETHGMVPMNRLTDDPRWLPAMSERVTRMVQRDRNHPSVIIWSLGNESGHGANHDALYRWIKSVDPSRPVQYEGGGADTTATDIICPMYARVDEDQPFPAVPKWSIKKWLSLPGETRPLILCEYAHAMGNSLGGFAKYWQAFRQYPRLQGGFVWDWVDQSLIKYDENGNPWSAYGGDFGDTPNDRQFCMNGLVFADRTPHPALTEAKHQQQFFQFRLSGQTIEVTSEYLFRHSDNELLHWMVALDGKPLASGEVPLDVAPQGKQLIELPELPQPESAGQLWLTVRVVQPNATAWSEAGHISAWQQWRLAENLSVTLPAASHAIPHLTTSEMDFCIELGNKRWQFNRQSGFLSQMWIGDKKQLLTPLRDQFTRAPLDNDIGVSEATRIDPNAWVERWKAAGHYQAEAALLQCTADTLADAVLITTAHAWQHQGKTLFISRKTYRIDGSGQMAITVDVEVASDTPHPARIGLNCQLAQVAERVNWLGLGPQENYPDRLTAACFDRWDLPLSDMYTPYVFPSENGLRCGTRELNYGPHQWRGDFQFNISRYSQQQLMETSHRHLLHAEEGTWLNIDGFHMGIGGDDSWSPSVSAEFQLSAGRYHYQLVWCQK

T3 sequence (P08684 whole entry): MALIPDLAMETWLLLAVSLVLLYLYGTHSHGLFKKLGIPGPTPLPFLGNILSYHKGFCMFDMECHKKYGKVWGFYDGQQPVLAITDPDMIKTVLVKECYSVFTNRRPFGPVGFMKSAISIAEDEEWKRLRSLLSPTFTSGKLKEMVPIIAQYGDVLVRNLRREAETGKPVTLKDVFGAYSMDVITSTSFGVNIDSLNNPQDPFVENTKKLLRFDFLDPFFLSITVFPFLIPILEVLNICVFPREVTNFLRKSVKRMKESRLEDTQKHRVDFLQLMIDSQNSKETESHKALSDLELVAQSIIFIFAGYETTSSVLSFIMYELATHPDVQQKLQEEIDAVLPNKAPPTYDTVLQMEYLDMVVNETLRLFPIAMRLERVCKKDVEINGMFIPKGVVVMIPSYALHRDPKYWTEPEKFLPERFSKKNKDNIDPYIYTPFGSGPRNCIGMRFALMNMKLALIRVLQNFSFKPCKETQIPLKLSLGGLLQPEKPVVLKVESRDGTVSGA
Melanocortin receptor 4, sequence (P32245 whole entry): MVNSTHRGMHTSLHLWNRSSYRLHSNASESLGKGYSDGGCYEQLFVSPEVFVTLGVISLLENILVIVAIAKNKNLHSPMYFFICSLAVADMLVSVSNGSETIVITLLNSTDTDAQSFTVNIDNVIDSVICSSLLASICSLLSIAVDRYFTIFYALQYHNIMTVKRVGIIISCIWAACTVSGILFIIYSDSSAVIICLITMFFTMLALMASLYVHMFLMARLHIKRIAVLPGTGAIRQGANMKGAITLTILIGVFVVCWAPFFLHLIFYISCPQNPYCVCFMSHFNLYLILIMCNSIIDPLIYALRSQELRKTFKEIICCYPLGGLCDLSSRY
Ras and Rab interactor 1/Tyrosine-protein kinase ABL1, sequence (P00519 whole entry): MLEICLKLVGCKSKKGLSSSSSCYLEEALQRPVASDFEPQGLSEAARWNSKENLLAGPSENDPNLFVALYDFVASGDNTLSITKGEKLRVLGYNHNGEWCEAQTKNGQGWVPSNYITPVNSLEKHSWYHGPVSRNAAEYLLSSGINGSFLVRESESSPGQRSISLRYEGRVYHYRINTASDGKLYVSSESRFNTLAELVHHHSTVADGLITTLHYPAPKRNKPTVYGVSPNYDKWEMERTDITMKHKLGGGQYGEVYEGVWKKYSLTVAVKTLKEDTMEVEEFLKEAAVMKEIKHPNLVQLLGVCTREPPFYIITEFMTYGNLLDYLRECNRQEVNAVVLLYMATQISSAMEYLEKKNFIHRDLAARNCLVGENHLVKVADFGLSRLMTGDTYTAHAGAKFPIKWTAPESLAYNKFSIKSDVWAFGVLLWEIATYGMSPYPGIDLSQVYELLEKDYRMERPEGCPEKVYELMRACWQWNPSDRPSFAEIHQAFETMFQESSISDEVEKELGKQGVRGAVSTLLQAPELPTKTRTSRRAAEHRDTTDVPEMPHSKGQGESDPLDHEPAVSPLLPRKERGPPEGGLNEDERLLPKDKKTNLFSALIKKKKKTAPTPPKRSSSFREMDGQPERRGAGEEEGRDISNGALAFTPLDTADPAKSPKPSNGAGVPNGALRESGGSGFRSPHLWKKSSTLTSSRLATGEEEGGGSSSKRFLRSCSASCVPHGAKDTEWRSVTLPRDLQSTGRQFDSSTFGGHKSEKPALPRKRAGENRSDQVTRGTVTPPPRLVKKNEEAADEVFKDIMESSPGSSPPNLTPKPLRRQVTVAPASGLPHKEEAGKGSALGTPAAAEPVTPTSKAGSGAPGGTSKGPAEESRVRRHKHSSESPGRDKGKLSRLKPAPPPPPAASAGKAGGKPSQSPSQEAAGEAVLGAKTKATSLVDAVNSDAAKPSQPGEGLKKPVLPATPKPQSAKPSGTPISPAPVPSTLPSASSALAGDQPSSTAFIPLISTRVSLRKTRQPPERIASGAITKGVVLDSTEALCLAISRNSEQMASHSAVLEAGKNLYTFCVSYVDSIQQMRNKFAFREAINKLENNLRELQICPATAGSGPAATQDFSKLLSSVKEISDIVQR
Ras and Rab interactor 1/Tyrosine-protein kinase ABL1, sequence (Q13671 whole entry): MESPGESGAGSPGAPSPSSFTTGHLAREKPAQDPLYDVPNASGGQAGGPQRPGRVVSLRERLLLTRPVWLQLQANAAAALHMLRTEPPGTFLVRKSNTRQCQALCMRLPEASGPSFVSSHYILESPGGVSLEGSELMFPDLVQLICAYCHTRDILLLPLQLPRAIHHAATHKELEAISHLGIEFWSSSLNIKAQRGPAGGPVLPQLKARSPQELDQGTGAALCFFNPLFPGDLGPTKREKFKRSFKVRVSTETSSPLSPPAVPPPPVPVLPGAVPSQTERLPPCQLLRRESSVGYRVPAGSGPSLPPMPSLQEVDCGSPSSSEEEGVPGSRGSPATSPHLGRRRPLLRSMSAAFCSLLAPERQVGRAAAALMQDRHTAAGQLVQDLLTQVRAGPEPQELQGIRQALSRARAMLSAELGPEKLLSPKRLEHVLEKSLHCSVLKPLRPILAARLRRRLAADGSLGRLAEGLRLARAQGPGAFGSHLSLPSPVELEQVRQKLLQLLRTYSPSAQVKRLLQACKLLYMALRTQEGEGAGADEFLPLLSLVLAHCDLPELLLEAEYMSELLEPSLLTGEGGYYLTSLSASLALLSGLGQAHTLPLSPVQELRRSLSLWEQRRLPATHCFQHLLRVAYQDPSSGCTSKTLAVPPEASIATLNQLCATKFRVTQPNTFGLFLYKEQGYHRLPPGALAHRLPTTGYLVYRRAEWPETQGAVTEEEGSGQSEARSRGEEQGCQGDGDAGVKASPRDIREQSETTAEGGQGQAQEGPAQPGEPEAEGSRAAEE
Cytochrome P450 2D6, sequence (P10635 whole entry): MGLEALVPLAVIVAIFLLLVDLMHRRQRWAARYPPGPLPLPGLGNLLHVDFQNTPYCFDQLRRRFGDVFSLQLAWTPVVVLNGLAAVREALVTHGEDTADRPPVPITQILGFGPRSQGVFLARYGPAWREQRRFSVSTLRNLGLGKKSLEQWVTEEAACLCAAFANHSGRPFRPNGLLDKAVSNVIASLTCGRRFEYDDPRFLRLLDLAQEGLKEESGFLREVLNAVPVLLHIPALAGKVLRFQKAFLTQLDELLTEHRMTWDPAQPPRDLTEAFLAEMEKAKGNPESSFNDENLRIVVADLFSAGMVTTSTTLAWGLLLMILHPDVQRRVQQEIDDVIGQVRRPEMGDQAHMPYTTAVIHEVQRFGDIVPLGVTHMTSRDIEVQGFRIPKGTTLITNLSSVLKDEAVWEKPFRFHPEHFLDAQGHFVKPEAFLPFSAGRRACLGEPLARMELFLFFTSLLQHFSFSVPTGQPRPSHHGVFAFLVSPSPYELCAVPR

In the case of Oc1ccc2c(c1)OCC1(O)Cc3cc(O)c(O)cc3C21 (centres undefined), the EC50 [1] was 3.96 µM (active), the EC50 (HEK293 [2]) was 53.6 µM (inactive) and the EC50 (Insulin-degrading enzyme [3]) was > 54.7 µM (inactive). The IC50 (HEK293 [4]) was 85.1 µM (inactive), the AC50 (Cytochrome P450 3A4 [5]) was 31.6 µM (inconclusive) and the EC50 [6] was > 99 µM (inactive). The EC50 (Insulin-degrading enzyme [7]) was > 54.7 µM (inactive).

With Oc1cc(SCc2ccccc2)ncn1 the IC50 [8] was 0.514 µM (active).

With Cc1ccccc1CN1Cc2cnnn2-c2ccccc2C1C#N (centres undefined) the AC50 [9] was 8.97 µM (active), the AC50 [10] was 13.8 µM (active) and the AC50 [11] was 20.9 µM (active). For the same molecule, the AC50 [12] was 17 µM (active), the IC50 (Melanocortin receptor 4) was 7.25 µM (active) and the IC50 [13] was > 64.5 µM (inactive). The AC50 [14] was 15.8 µM (active).

For O=C(NNS(=O)(=O)c1ccc(Cl)cc1)C1CCN(Cc2ccccc2)CC1, the AC50 (Cytochrome P450 2D6) was 1 µM (inconclusive) and the AC50 (Cytochrome P450 3A4 [15]) was “inconclusive”.

In the case of O=C(Nc1cc(S(=O)(=O)N2CCOCC2)ccc1N1CCOCC1)c1ccccc1F, the EC50 (HEK293 [2]) was > 54.7 µM (inactive), the EC50 (Insulin-degrading enzyme [3]) was > 54.7 µM (inactive) and the IC50 (HEK293 [4]) was > 89.2 µM (inactive). The EC50 (Insulin-degrading enzyme [7]) was > 54.7 µM (inactive).

In the case of O=C(N=Nc1c(O)n(Cc2ccccc2)c2ccccc12)c1ccc(O)cc1, the AC50 (HeLa) was 39.7 µM (active).

With Cc1ccc(OCCN2C(=O)c3ccccc3C2=O)c([N+](=O)[O-])c1 the IC50 [16] was 9.04 µM (active) and the EC50 (Beta-galactosidase) was > 40 µM (inactive).
